Reference: US7932264B2, “Sinomenine derivatives and preparation and uses thereof” (priority 2005, dated 2011)

Columns and labels:
Format in all cases: cell-based
[1] = test system: LPS-induced TNF-α production; experiment: Inhibition of LPS-induced TNF-α production in human whole blood culture; conditions: LPS 10 ng/ml, 6 h; for IC50: IC50 by program calcdemo, read-out: IC50 to inhibit LPS-induced TNF-α production
Procedure: (§1) Human blood sample (−20 ml) was taken from a peripheral venous (10 ml) of a healthy volunteer (20-50 years old, nonsmoker) using sterile endotoxin-free ethylenediaminetetraacetic (EDTA) tube and was immediately processed. The blood samples were divided into three different experimental conditions (groups): control, stimulating with LPS alone and LPS plus testing compound. Each group contained five blood samples from different individuals. In control group, 100 μl of whole blood sample were diluted with 900 μL of RPMI 1640 in 24 wells plate. In LPS only group or LPS plus testing compound group, 100 ul of whole blood were diluted with 1 μl testing compound or DMSO and 889 ul of RPMI 1640 (RPMI 1640 was consisted of 25 mM Hepes supplemented with 100 U/mL penicillin, 100 μg/mL streptomycin, 4 mM 1-glutamine, and 10% fetal calf serum) All samples from the three groups were incubated in 37° C. and 5% CO2 for 15 minutes, then 10 μl LPS (1 μg/ml) was added into these samples except samples of control group, and was kept in 37° C. and 5% CO2 for 6 h. The samples were placed on ice for 3 minutes and centrifuged for 10 min at 4° C. and 1500 g. The supernatants of the whole blood culture were taken and kept at −80° C. for analysis of TNF-α, IL-1, IL-6 and IL-8.
The samples from above described protocol were used to determine the release of TNF-α from whole blood culture induced by LPS stimulation and the inhibition by each of 22 tested compounds on the LPS-induced TNF-α production. The TNF-α production was assessed using human TNF-α Enzyme Immunometric Assay Kit (Lot. 235123) from R&D Systems (MN, USA), the detail methods are described as the instruction of the Kit. The concentration of LPS-induced TNF-α production in whole blood culture was 884.2±329.8 pg/ml. These 22 compounds were divided into three groups according to their inhibition potencies on the LPS-induced TNF-α production:
(§2) Since compounds #54 and #44 we obtained were mixed chemical isomers, these two compounds have been excluded from the IC50 experiments. […] concentrations of the compounds (#20, #33, #37, #39, and #48) were tested: 10^−9, 10^−8, 10^−7, 10^−6, 10^−5 and 10^−4 Molar/L. The parent compound, sinomenine, was used as a control. The IC50 was determined by program calcdemo.
The blood samples were incubated in the presence of LPS (concentration. 10 ng/ml) for 6 h. Sinomenine (SIN) was used as control. Because all tested compounds including SIN had no effect at concentration of 10^−9 on LPS-induced TNF-α production, the levels of LPS-induced TNF-α production at 10^−9 of tested compounds in the figures were equivalent to the levels of TNF-α in blood samples with LPS alone. Data in panel a of the figures (a1-a6) present the absolute values of TNF-α; data in panel b (b1-b6) present the percentage inhibition of the tested compounds on LPS-induced TNF-α production. All data were Mean±SD (n=6).

[2] = test system: LPS-induced IL-6 production; experiment: Inhibition of LPS-induced IL-6 production in human whole blood culture; conditions: LPS 10 ng/ml, 6 h; for IC50: human whole blood culture, IC50 by program calcdemo, read-out: IC50 to inhibit LPS-induced IL-6 production
Procedure: as §1, §2
(§3) The inhibition of tested compounds on LPS-induced IL-6 production was assessed using human IL-6 Elisa Kit (Lot number 054204D) from Biosource (Carlsbad, Calif., USA). The methods are briefly described according to the instruction in the Kit as below, all reagents and solutions were supplied with the Kit:
(§4) 1) Reagents and solutions were properly prepared for the experiments to determine bioactivity according to the instruction of the Kit.
2) 50 μL of standard solution supplied with the Kit, blood sample with testing compound and blood sample with LPS alone was added per well. Then, 50 μL of Biotin Conjugate was added to each well. The well was covered with the adhesive strip. Then those wells were incubated for 2 hours at room temperature. 3) Each well was aspirated and washed by filling wash buffer (600 μL) using an autowasher. The liquid was completely removed at each step to ensure good performance. This process was repeated three times for a total of four washes. 4) 100 μL of Streptavidin-HRP working solution was added to each well and the well was covered with a new adhesive strip, incubated for 30 min at room temperature. 5) The same aspiration and wash procedures were repeated as described in step 3. 6) 100 μL of Stabilized Chromogen was added to each well and incubated for 30 minutes at room temperature. These wells were protected from light. 7) 100 μL of Stop Solution was added to each well. 8) The optical density of each well was determined within 30 minutes using a microplate reader set to 450 nm.
The blood samples were incubated in the presence of LPS (concentration: 10 ng/ml) for 6 h. The effects of sinomenine (SIN) on LPS-induced IL-6 production were also examined. […]

[3] = test system: LPS-induced IL-1 production; experiment: Inhibition of LPS-induced IL-1 production in human whole blood culture; conditions: LPS 10 ng/ml, 6 h; for IC50: human whole blood culture, IC50 by program calcdemo, read-out: IC50 to inhibit LPS-induced IL-1 production
Procedure: as §1, §2
The inhibition of tested compounds on LPS-induced IL-1 production was assessed using human IL-1βEnzyme Immunometric Assay Kit (Lot number 145020) from Cayman Chemical Company (MI, USA). The methods are briefly described according to the instructions supplied with the Kit. All reagents and solutions were supplied with the Kit:
1) Reagents and solutions were properly prepared for the experiments to determine bioactivity according to the instruction.
2) Standard solution provided with the Kit, blood sample with testing compound and blood sample with LPS alone which were prepared as above described, 50 ul for each of these solution or blood samples, was added to each well. Then, 10 μL of DTT, 5 μL of mouse serum and 100 μL of Fab′ were also added into each well together. The well was covered with the adhesive strip. Then those wells were incubated overnight at 4° C. A plate layout was provided to record standards and samples assayed. 3) Each well was washed by filling wash buffer (600 μL) using an autowasher. The liquid was completely removed at each step to ensure good performance. This process was repeated four times for a total of five washes. 4) 200 μL of Ellman's reagent was added to each well and the plate was covered with a piece of dark paper, incubated for 4 hours at room temperature with gentle shaking. 5) The optical density of each well was determined using a microplate reader set to 412 nm.
The blood samples were incubated in the presence of LPS (concentration: 10 ng/ml) for 6 h. The inhibition of Sinomenine (SIN) on LPS-induced IL-1 production was also examined. Because all tested compounds including SIN had no effect at concentration of 10^−9 on LPS-induced IL-1 production, the levels of LPS-induced IL-1 production at 10^−9 of tested compounds in the figures were equivalent to the levels of IL-1 in blood samples with LPS alone. […]

[4] = test system: LPS-induced IL-8 production; experiment: Inhibition of LPS-induced IL-8 production in human whole blood culture; conditions: LPS 10 ng/ml, 6 h; for IC50: human whole blood culture, IC50 by program calcdemo, read-out: IC50 to inhibit LPS-induced IL-8 production
Procedure: as §1, §2
as §3, with “IL-8” for “IL-6”, “061302B)” for “054204D)”
as §4
2) Standard solution supplied with the Kit, blood sample with testing compound and blood sample with LPS alone was (50 μL of each item) added into per well. Then, 50 μL of Biotin Conjugate was also added to each well. The well was covered with the adhesive strip. Then those wells were incubated for 1.5 hours at room temperature. 3) Each well was aspirated and washed by filling wash buffer (600 μL) using an autowasher. The liquid was completely removed at each step to ensure good performance. This process was repeated three times for a total of four washes. 4) 100 μL of Streptavidin-HRP working solution was added to each well and the well was covered with a new adhesive strip, incubated for 30 min at room temperature. 5) The same aspiration and wash procedures were repeated as described in step 3. 6) 100 μL of Stabilized Chromogen was added to each well and incubated for 30 minutes at room temperature. These wells were protected from light. 7) 100 μL of Stop Solution was added to each well. 8) The optical density of each well was determined within 30 minutes using a microplate reader set to 450 nm.
The blood samples were incubated in the presence of LPS (concentration: 10 ng/ml) for 6 hours. The effects of sinomenine (SIN) on LPS-induced IL-8 production were also examined. […]

| SMILES | effect on LPS-induced TNF-α production at concentration of 10^−9 ([1]; 10^−9 mol/L) | effect on LPS-induced IL-6 production at concentration of 10^−9 ([2]; 10^−9 mol/L) | IC50 [2] | effect on LPS-induced IL-1 production at concentration of 10^−9 ([3]; 10^−9 mol/L) | effect on LPS-induced IL-8 production at concentration of 10^−9 ([4]; 10^−9 mol/L) | IC50 [4] | inhibition at 10 µM ([1]; compound 10^−5 mol/L, human whole blood culture, read-out: inhibition of LPS-induced TNF-α production compared to LPS alone) | IC50 ([1]; human whole blood culture) | IC50 [3] |
| --- | --- | --- | --- | --- | --- | --- | --- | --- | --- |
| COC1=CC2[C@@H]3Cc4ccc(OC)c(O)c4[C@]2(CCN3C)CC1=O (stereo partly drawn) [Compound 1, sinomenine] | no effect | no effect | 1700 µM | no effect | no effect | 74 µM |  |  |  |
| COC1=CC2[C@@H]3Cc4ccc(OC)c(O)c4[C@]2(CCN3C(=O)c2cc(C)cc(C)c2)CC1=O (stereo partly drawn) [Compound 9] |  |  |  |  |  |  | < 30% |  |  |
| COC(=O)c1cccc(C)c1S(=O)(=O)N1CC[C@@]23CC(=O)C(OC)=C[C@@H]2[C@@H]1Cc1ccc(OC)c(O)c13 [Compound 33] |  |  | 8.7 µM |  |  | 7300 µM |  | 4.4 µM | 100 µM |
| COC1=C[C@@H]2[C@@H]3Cc4ccc(OC)c(O)c4[C@]2(CCN3C(=O)c2cccnc2)CC1=O [Compound 37] |  |  |  |  |  | 7600 µM |  | 420 µM | 8.8 µM |
| COC1=C[C@@H]2[C@@H]3Cc4ccc(OC)c(O)c4[C@]2(CCN3C(=O)c2ccc(C)cc2)CC1=O [Compound 39] |  |  | 5.3 µM |  |  |  |  | 13 µM | 4900 µM |
| COc1ccc2c(c1OC)C13CCN(C)C(C2)C1CC=NN(S(=O)(=O)c1ccc(C)cc1)C(O)C3 (stereo not drawn) [Compound 48] |  |  | 1000 µM |  |  | 3800 µM |  | 760 µM | 9500 µM |
